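Briefly, cells in 96-well plates were exposed to five compound concentrations for 48 h, and endpoints were estimated by linear interpolation. At the GI50, growth is halved.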 Active and inactive are the calls of the source. No stated cut-off is given here; in the data, active = GI50 up to about 1.1 µM and inactive = higher.
Key:
Experiment in all cases: NCI anticancer screen, dose series, 48 h
[1] = tested on: SNB-75
[2] = tested on: KM-20L2
[3] = tested on: NCI/ADR-RES
[4] = tested on: T47D
[5] = tested on: SNB-78
[6] = tested on: COLO 205
[7] = tested on: KM12
[8] = tested on: RXF 393
[9] = tested on: HOP-92
[10] = tested on: UO-31
[11] = tested on: UACC-62
[12] = tested on: CCRF-CEM
[13] = tested on: MCF7
[14] = tested on: SK-MEL-28
[15] = tested on: SR
[16] = tested on: MDA-N
[17] = tested on: SNB-19
[18] = tested on: OVCAR-4
[19] = tested on: OVCAR-8
[20] = tested on: MDA-MB-231
[21] = tested on: MOLT-4
[22] = tested on: OVCAR-3
[23] = tested on: CAKI-1
[24] = tested on: Malme-3M
[25] = tested on: M14
[26] = tested on: PC-3
[27] = tested on: NCI-H226
[28] = tested on: NCI-H23
[29] = tested on: DU-145
[30] = tested on: BT-549
[31] = tested on: SF-295
[32] = tested on: LXFL 529
[33] = tested on: SW-620
[34] = tested on: K562
[35] = tested on: HOP-62
[36] = tested on: HOP-18
[37] = tested on: A498
[38] = tested on: HCT-15
[39] = tested on: SF-268
[40] = tested on: HCC 2998
[41] = tested on: SK-MEL-2
[42] = tested on: UACC-257
[43] = tested on: U-251
[44] = tested on: RPMI-8226
[45] = tested on: SF-539
[46] = tested on: DLD-1
[47] = tested on: TK-10
[48] = tested on: IGROV-1
[49] = tested on: EKVX
[50] = tested on: HT-29
[51] = tested on: NCI-H522
[52] = tested on: SK-MEL-5
[53] = tested on: SN12C
[54] = tested on: LOX IMVI
[55] = tested on: NCI-H460
[56] = tested on: MDA-MB-435
[57] = tested on: OVCAR-5
[58] = tested on: HCT-116
[59] = tested on: 786-0
[60] = tested on: SK-OV-3
[61] = tested on: HL-60
[62] = tested on: ACHN
[63] = tested on: M19-MEL
[64] = tested on: DMS-273
[65] = tested on: A549
[66] = tested on: XF498
[67] = tested on: Hs-578T
[68] = tested on: DMS-114

CCN(CC)CCNc1ccc2ncn3c4ccc(O)cc4c(=O)c1c23
GI50 [1]: 0.652 µM (active) | GI50 [2]: 1.23 µM (inactive) | GI50 [3]: 2.81 µM (inactive) | GI50 [4]: 12.2 µM (inactive) | GI50 [5]: 0.541 µM (active) | GI50 [6]: 0.769 µM (active) | GI50 [7]: 1.21 µM (inactive) | GI50 [8]: 0.178 µM (active) | GI50 [9]: 0.434 µM (active) | GI50 [10]: 0.429 µM (active) | GI50 [11]: 1.25 µM (inactive) | GI50 [12]: 0.0719 µM (active) | GI50 [13]: 0.15 µM (active) | GI50 [14]: 7.76 µM (inactive) | GI50 [15]: < 0.01 µM (active) | GI50 [16]: 4.19 µM (inactive) | GI50 [17]: 1.01 µM (active) | GI50 [18]: 1.28 µM (inactive) | GI50 [19]: 0.561 µM (active) | GI50 [20]: 1.65 µM (inactive) | GI50 [21]: 0.0146 µM (active) | GI50 [22]: 3.55 µM (inactive) | GI50 [23]: 0.0649 µM (active) | GI50 [24]: 1.48 µM (inactive) | GI50 [25]: 1.28 µM (inactive) | GI50 [26]: 1.49 µM (inactive) | GI50 [27]: 0.04 µM (active) | GI50 [28]: 0.194 µM (active) | GI50 [29]: 0.315 µM (active) | GI50 [30]: 12 µM (inactive) | GI50 [31]: 0.216 µM (active) | GI50 [32]: 1.26 µM (inactive) | GI50 [33]: 0.216 µM (active) | GI50 [34]: 1.04 µM (active) | GI50 [35]: 0.141 µM (active) | GI50 [36]: 5.92 µM (inactive) | GI50 [37]: 1.12 µM (inactive) | GI50 [38]: 0.214 µM | GI50 [39]: 0.721 µM (active) | GI50 [40]: 2.51 µM (inactive) | GI50 [41]: 6.78 µM (inactive) | GI50 [42]: 6.62 µM (inactive) | GI50 [43]: 0.193 µM (active) | GI50 [44]: 0.267 µM (active) | GI50 [45]: 0.458 µM (active) | GI50 [46]: 0.544 µM (active) | GI50 [47]: 3.2 µM (inactive) | GI50 [48]: 0.479 µM (active) | GI50 [49]: 7.28 µM (inactive) | GI50 [50]: 0.679 µM (active) | GI50 [51]: 0.458 µM (active) | GI50 [52]: 0.289 µM (active) | GI50 [53]: 0.22 µM (active) | GI50 [54]: 0.327 µM (active) | GI50 [55]: 0.0291 µM (active) | GI50 [56]: 3.67 µM (inactive) | GI50 [57]: 2.37 µM (inactive) | GI50 [58]: 0.212 µM (active) | GI50 [59]: 0.459 µM (active) | GI50 [60]: 0.785 µM (active) | GI50 [61]: 0.131 µM (active) | GI50 [62]: 0.0499 µM (active) | GI50 [63]: 1.38 µM (inactive) | GI50 [64]: 0.0731 µM (active) | GI50 [65]: 0.0248 µM (active) | GI50 [66]: 0.173 µM (active) | GI50 [67]: 3.11 µM (inactive)

CC(=O)OC1CC2C(C)(C)OC(=O)CC(OC(C)=O)[C@]2(C)C2CCC3(C)C(=CCC3[C@H]3COC(=O)C3)[C@]12C (stereo partly drawn)
GI50 [1]: 46.6 µM (inactive) | GI50 [2]: > 100 µM (inactive) | GI50 [5]: > 100 µM (inactive) | GI50 [6]: > 100 µM (inactive) | GI50 [7]: > 100 µM (inactive) | GI50 [8]: > 100 µM (inactive) | GI50 [9]: 26.1 µM (inactive) | GI50 [10]: > 100 µM (inactive) | GI50 [11]: 97.7 µM (inactive) | GI50 [12]: 23.5 µM (inactive) | GI50 [14]: 42.6 µM (inactive) | GI50 [15]: 24 µM (inactive) | GI50 [17]: > 100 µM (inactive) | GI50 [18]: > 100 µM (inactive) | GI50 [19]: > 100 µM (inactive) | GI50 [21]: 24.5 µM (inactive) | GI50 [22]: 94 µM (inactive) | GI50 [23]: > 100 µM (inactive) | GI50 [24]: > 100 µM (inactive) | GI50 [25]: 32.7 µM (inactive) | GI50 [27]: > 100 µM (inactive) | GI50 [28]: > 100 µM (inactive) | GI50 [68]: 70.1 µM (inactive) | GI50 [31]: 41.5 µM (inactive) | GI50 [32]: 51.8 µM (inactive) | GI50 [33]: > 100 µM (inactive) | GI50 [34]: 43.9 µM (inactive) | GI50 [35]: > 100 µM (inactive) | GI50 [37]: 96.4 µM (inactive) | GI50 [38]: > 100 µM | GI50 [39]: > 100 µM (inactive) | GI50 [40]: > 100 µM (inactive) | GI50 [41]: 72.3 µM (inactive) | GI50 [43]: > 100 µM (inactive) | GI50 [44]: 47.1 µM (inactive) | GI50 [45]: > 100 µM (inactive) | GI50 [46]: 71.6 µM (inactive) | GI50 [47]: > 100 µM (inactive) | GI50 [48]: > 100 µM (inactive) | GI50 [49]: 65.5 µM (inactive) | GI50 [50]: 60.5 µM (inactive) | GI50 [51]: 83.4 µM (inactive) | GI50 [52]: > 100 µM (inactive) | GI50 [53]: > 100 µM (inactive) | GI50 [54]: > 100 µM (inactive) | GI50 [55]: > 100 µM (inactive) | GI50 [57]: > 100 µM (inactive) | GI50 [58]: 61.5 µM (inactive) | GI50 [59]: > 100 µM (inactive) | GI50 [60]: > 100 µM (inactive) | GI50 [61]: 50.1 µM (inactive) | GI50 [62]: > 100 µM (inactive) | GI50 [63]: 80.2 µM (inactive) | GI50 [64]: 88.9 µM (inactive) | GI50 [65]: 55.6 µM (inactive) | GI50 [66]: > 100 µM (inactive)

Source: ChEMBL document CHEMBL1201862, “PubChem BioAssay data set” (2004)
